Like-named read-outs stand apart in the source and are kept apart here.
How the values were obtained:
[1] = system: 3hpdh, 3hibdhIV, and mmsadh; experiment: Inducer specificity of gene expression (FIGS. 4 and 5); format: cell-based, Pseudomonas denitrificans
3hpdh [2] = experiment: RT-PCR relative mRNA levels of 3-HP degrading genes in various microorganisms (Table 7); format: cell-based, microorganisms shown in Table 1
[3] = system: C4-LysR protein and promoter DNA fragments; experiment: Electrophoretic mobility shift assay (EMSA) of C4-LysR protein with promoter DNA fragments; format: binding, Pseudomonas denitrificans; conditions: 25 mM 3-HP
mmsadh = experiment: GFP reporter inserted at mmsadh position; format: cell-based, Pseudomonas denitrificans; conditions: w 3-HP 25 mM
Text: (§1) The effect of the O1 and O2 operators on biosynthesis of the C4-LysR protein and the mmsadh expression was examined by using a green fluorescent protein (GFP) as a reporter (Table 2). In Table 2, the effect of the C4-LysR protein and the O1 and O2 operators on the expression of the C4-LysR and the mmsadh. The relative size of the GFP was shown relative to the wild type in the absence of 3-HP. the C4-LysR protein was either not present or was produced by a constitutive promoter, and a plasmid was prepared to control the expression of the GFP upon the existing promoter having the O1 and O2 operators. Then, the experiment was carried out by inserting the prepared plasmid into a host of P. denitrificans from which genes between the C4-LysR and the mmsadh was deleted. Accordingly, the expression of the GFP was suppressed by the C4-LysR protein itself. That is, when the C4-LysR is expressed, the GFP expression was reduced by more than 10-fold. In addition, the expression regulation was also constant regardless of the presence of 3-HP. In this regard, it was confirmed that the transcription of C4-LysR mRNA was negatively regulated by the C4-LysR protein. This experiment was repeated by using a promoter that randomized the O1 and O2 operators to eliminate the symmetrical dyad. As a result, in the case where the O1 or O2 operator site was randomized, the GFP expression was not regulated by the C4-LysR protein, referring that the C4-LysR protein in the P. denitrificans strain was negatively regulated by the strain itself.
Meanwhile, the effect of the O1 and O2 operators on the mmsadh gene expression was examined in a similar manner. That is, the C4-LysR protein was constitutively expressed, and a plasmid was prepared so that GFP can be located after a promoter having O1 and O2 promoters. Here, an O1 or O2 operator was mutated so that the symmetrical dyad of an O1 or O2 site was randomized. As a result, when the O1 or O2 site was mutated, the phenomenon of up-regulation of transcription by 3-HP disappeared. That is, it means that the O1 and O2 operators are all essential sites for up-regulation of the expression by 3-HP.

3hpdh [4] = experiment: RT-PCR relative mRNA level of 3-HP catabolic gene
C4-LysR = experiment: GFP reporter inserted at C4-LysR position; format: cell-based, Pseudomonas denitrificans; conditions: w 3-HP 25 mM
Text: as §1

With `O=C(O)CCO` [3-HP, 3-hydroxypropionic acid] the “inducer of expression of mmsadh and 3hibdhIV” value ([1]; FIG. 4) was “acts as an inducer”, the “amplification of the genes 3hpdh, 3hibdhIV and mmsadh by the compound” value ([1]; FIGS. 4 and 5) was “amplified” and the “Relative mRNA level 3hpdh + 3-HP” value (3hpdh [2]) was 0.19. The “Relative mRNA level 3hpdh + 3-HP” value (3hpdh [2]; Achromobacter denitrificans, + 3-HP) was 0.24, the “Relative mRNA level 3hpdh + 3-HP” value (3hpdh [2]; Acidovorax avenae subsp., + 3-HP) was 0.28 and the “Relative mRNA level 3hpdh + 3-HP” value (3hpdh [2]; Acidovorax sp., + 3-HP) was 0.31. For the same molecule, the “Relative mRNA level 3hpdh + 3-HP” value (3hpdh [2]; Acinetobacter baumannii, + 3-HP) was 0.19, the “Relative mRNA level 3hpdh + 3-HP” value (3hpdh [2]; Agrobacterium sp., + 3-HP) was 0.27 and the “Relative mRNA level 3hpdh + 3-HP” value (3hpdh [2]; Alcaligenes faecalis, + 3-HP) was 0.26. For the same molecule, the “Relative mRNA level 3hpdh + 3-HP” value (3hpdh [2]; Alcanivorax hongdengensis, + 3-HP) was 0.27, the “Relative mRNA level 3hpdh + 3-HP” value (3hpdh [2]; Alicychphilus denitrificans, + 3-HP) was 0.30 and the “Relative mRNA level 3hpdh + 3-HP” value (3hpdh [2]; Alteromonas marina, + 3-HP) was 0.34. For the same molecule, the “Relative mRNA level 3hpdh + 3-HP” value (3hpdh [2]; Azospirillum brasilensse, + 3-HP) was 0.41, the “Relative mRNA level 3hpdh + 3-HP” value (3hpdh [2]; Bordetella avium, + 3-HP) was 0.45 and the “Relative mRNA level 3hpdh + 3-HP” value (3hpdh [2]; Bradyrhizobium japonicum, + 3-HP) was 0.52. The “Relative mRNA level 3hpdh + 3-HP” value (3hpdh [2]; Burkholderia ambifaria, + 3-HP) was 0.31, the “Relative mRNA level 3hpdh + 3-HP” value (3hpdh [2]; Catenulispora acidiphilia, + 3-HP) was 0.41 and the “Relative mRNA level 3hpdh + 3-HP” value (3hpdh [2]; Caulobacter sp., + 3-HP) was 0.45. The “Relative mRNA level 3hpdh + 3-HP” value (3hpdh [2]; Chromobacterium violaceum, + 3-HP) was 0.25, the “Relative mRNA level 3hpdh + 3-HP” value (3hpdh [2]; Comamonas testosteroni, + 3-HP) was 0.24 and the “Relative mRNA level 3hpdh + 3-HP” value (3hpdh [2]; Corynebacterium vitaeruminis, + 3-HP) was 0.28. For the same molecule, the “Relative mRNA level 3hpdh + 3-HP” value (3hpdh [2]; Cupriavidus necator, + 3-HP) was 0.21, the “Relative mRNA level 3hpdh + 3-HP” value (3hpdh [2]; Glaciecola nitratireducens, + 3-HP) was 0.30 and the “Relative mRNA level 3hpdh + 3-HP” value (3hpdh [2]; Gordonia bronchialis, + 3-HP) was 0.29. For the same molecule, the “Relative mRNA level 3hpdh + 3-HP” value (3hpdh [2]; Hahella chijuensis, + 3-HP) was 0.28, the “Relative mRNA level 3hpdh + 3-HP” value (3hpdh [2]; Halomonas elongata, + 3-HP) was 0.32 and the “Relative mRNA level 3hpdh + 3-HP” value (3hpdh [2]; Hirschia litorea, + 3-HP) was 0.34. The “Relative mRNA level 3hpdh + 3-HP” value (3hpdh [2]; Idiomarina sp., + 3-HP) was 0.42, the “Relative mRNA level 3hpdh + 3-HP” value (3hpdh [2]; Janthinobacterium lividum, + 3-HP) was 0.33 and the “Relative mRNA level 3hpdh + 3-HP” value (3hpdh [2]; Kitasatospora setae, + 3-HP) was 0.36. The “Relative mRNA level 3hpdh + 3-HP” value (3hpdh [2]; Kutzneria albida, + 3-HP) was 0.41, the “Relative mRNA level 3hpdh + 3-HP” value (3hpdh [2]; Methylobacterium sp., + 3-HP) was 0.45 and the “Relative mRNA level 3hpdh + 3-HP” value (3hpdh [2]; Novosphingobium sp., + 3-HP) was 0.39. The “Relative mRNA level 3hpdh + 3-HP” value (3hpdh [2]; Oceanimonas smirnovii, + 3-HP) was 0.24, the “Relative mRNA level 3hpdh + 3-HP” value (3hpdh [2]; Paracoccus sp., + 3-HP) was 0.25 and the “Relative mRNA level 3hpdh + 3-HP” value (3hpdh [2]; Parvibaculum lavamentivorans, + 3-HP) was 0.28. The “Relative mRNA level 3hpdh + 3-HP” value (3hpdh [2]; Phenylobacterium kunshanensis, + 3-HP) was 0.33, the “Relative mRNA level 3hpdh + 3-HP” value (3hpdh [2]; Polynucleobacter necessarius asymbioticus, + 3-HP) was 0.45 and the “Relative mRNA level 3hpdh + 3-HP” value (3hpdh [2]; Pseudogulbenkiania sp., + 3-HP) was 0.26. For the same molecule, the “Relative mRNA level 3hpdh + 3-HP” value (3hpdh [2]; Pseudomonas denitrificans ATCC13867, + 3-HP) was 0.23, the “Relative mRNA level 3hpdh + 3-HP” value (3hpdh [2]; Pseudomonas fluorescens, + 3-HP) was 0.27 and the “Relative mRNA level 3hpdh + 3-HP” value (3hpdh [2]; Pseudomonas knackmussii, + 3-HP) was 0.25. The “Relative mRNA level 3hpdh + 3-HP” value (3hpdh [2]; Pseudomonas protegens, + 3-HP) was 0.19, the “Relative mRNA level 3hpdh + 3-HP” value (3hpdh [2]; Psychrobacter phenylpyruvicus, + 3-HP) was 0.37 and the “Relative mRNA level 3hpdh + 3-HP” value (3hpdh [2]; Rhodomicrobium vannielli, + 3-HP) was 0.41. The “Relative mRNA level 3hpdh + 3-HP” value (3hpdh [2]; Segniliparus rotundus, + 3-HP) was 0.27, the “Relative mRNA level 3hpdh + 3-HP” value (3hpdh [2]; Shewanella oneidensis, + 3-HP) was 0.28 and the “Relative mRNA level 3hpdh + 3-HP” value (3hpdh [2]; Simiduia agarovorans, + 3-HP) was 0.29. For the same molecule, the “Relative mRNA level 3hpdh + 3-HP” value (3hpdh [2]; Sphingobium chlorophenolicum, + 3-HP) was 0.33, the “Relative mRNA level 3hpdh + 3-HP” value (3hpdh [2]; Sphingomonas wittichii, + 3-HP) was 0.45 and the “Relative mRNA level 3hpdh + 3-HP” value (3hpdh [2]; Stenotrophomonas maltophilia, + 3-HP) was 0.31. The “Relative mRNA level 3hpdh + 3-HP” value (3hpdh [2]; Streptomyces nodosus, + 3-HP) was 0.39, the “Relative mRNA level 3hpdh + 3-HP” value (3hpdh [2]; Verminephrobacter eiseniae, + 3-HP) was 0.43 and the “Relative mRNA level 3hpdh + 3-HP” value (3hpdh [2]; Vibrio furnissii, + 3-HP) was 0.39. For the same molecule, the “Relative mRNA level 3hpdh + 3-HP” value (3hpdh [2]; Xanthobacter autotrophicus, + 3-HP) was 0.27, the “Relative mRNA level 3hpdh + 3-HP” value (3hpdh [2]; Xanthomonas campestri, + 3-HP) was 0.25 and the “increase of expression of 3hpdh by 3-HP” value (3hpdh [2]; in the microorganisms (Table 7), 25 mM 3-HP in nutrient medium) was 6 fold. The “change of affinity of C4-LysR protein to DNA fragment in the presence of 3-HP” value (“change of affinity of C4-LysR protein” below) ([3]; fragment F1) was “barely changed affinity”, the “change of affinity of C4-LysR protein” value ([3]; fragment F2) was “slightly decreased affinity” and the “change of affinity of C4-LysR protein” value ([3]; fragment F12 (O1 and O2 operators)) was “increased affinity”. For the same molecule, the “relative size of GFP (relative to wild type in the absence of 3-HP)” value (“relative size of GFP” for short) (mmsadh; O1 & O2 mutation) was 3, the “relative size of GFP” value (mmsadh; O1 mutation) was 3 and the “relative size of GFP” value (mmsadh; O2 mutation) was 3. The “relative size of GFP” value (mmsadh; wildtype) was 55, the “relative size of GFP” value (mmsadh; ΔC4-LysR) was 3 and the “inducer of expression of 3hpdH” value (3hpdh [4]; FIG. 5) was “acts as an inducer”. The “fold increase of 3hpdh mRNA expression” value (3hpdh [4]; cells exposed to 25 mmol/L 3-HP vs no 3-HP, M9 medium, rpoD reference gene) was 46 fold, the “3hpdh expression on addition of 3-HP” value (3hpdh [4]; strain with C3 LysR gene removed) was “not amplified” and the “relative size of GFP” value (C4-LysR; O1 & O2 mutation) was 10. For the same molecule, the “relative size of GFP” value (C4-LysR; O1 mutation) was 10, the “relative size of GFP” value (C4-LysR; O2 mutation) was 1 and the “relative size of GFP” value (C4-LysR; wildtype) was 1. For the same molecule, the “relative size of GFP” value (C4-LysR; ΔC4-LysR) was 10.

— US10961539B2, “Promoter system inducing expression by 3-hydroxypropionic acid and method for biological production of 3-hydroxypropionic acid using same” (NOROO IC Co., Ltd., priority 2015, dated 2021)
